Measurements published in publication PMC10319141, “Imidazoquinolines with improved pharmacokinetic properties induce a high IFNα to TNFα ratio in vitro and in vivo” (Frontiers in Immunology, 2023).

Test system: TNFα and IFNα in peripheral plasma
Experiment: Cytokine induction after three consecutive daily s.c. treatments (Figure 6A, C)
Assay type: in vivo, mice
Conditions: in words; for type I Interferon concentrations in plasma after the second treatment: repeated daily s.c. treatment; for secretion of TNFα after repeated treatments in comparison with IMQ and RSQ: three daily s.c. treatments
Method: Cytokine concentrations in samples were quantified either by ELISA (hTNFα, R&D Systems; hIFNα, Mabtech) or cytometric bead arrays (CBA, LegendPlex mouse anti-virus response panel, BioLegend) according to the manufacturer’s instructions. CBAs were acquired on a ZE5 Cell Analyzer (Bio-Rad) and analyzed using the LegendPlex Software Suite (Qognit/BioLegend). Absorbance of ELISA-samples was quantified using a Versamax microplate reader (Molecular Devices).
Formulation. Test compounds were prepared for application in either 1% Tween 80, 9% PEG400 in ultrapure water (Biowest) (i.v., i.p., p.o. application) or 5 mM citric acid in 0.9% saline (Braun) (subcutaneous application). If compounds were administered subcutaneously, injections were carried out into the neck crease.
Collection of Samples. Mice were bled from the tail vein at various timepoints. Heparin (Sigma) or K2-EDTA (Sigma) was added to blood samples to a final […] concentration of 10-15 Unit or 5 mM. Plasma was generated by centrifugation at 6800xg for 8 min at 4°C and stored at -80°C until analyzed by ELISA or CBA. Animals were sacrificed after the indicated time points by CO2 inhalation. Heart blood and organs for compound quantification by HPLC-MS/MS were collected post mortem and stored at –20°C until extracted as described above.
Dotted lines indicate the time of repeated compound applications. (A) Cytokine levels in pooled tail plasma of mice from individual treatment groups (n=3 per pool and time point), error bars represent range of two replicate measurements. (B) Peripheral blood was collected from the tail vein before, 15, 30 60, 120, 240, 360 and 480 min after s.c. treatment. Compound concentration in peripheral plasma was analyzed by HPLC-MS/MS, data presented as mean ± SD.

Row | Compound | type I Interferon concentrations in plasma after the second treatment | secretion of TNFα after repeated treatments in comparison with IMQ and RSQ
1 | CCCCc1nc2c(N)nc3ccccc3c2n1CCC1CCNCC1 [A1] | at the limit of detection | remained low
2 | CCCCc1nc2c(N)nc3ccccc3c2n1CCC1CCN(C(=O)CN(C)CC(=O)N(C)C2CC(C)OC(OC3C(C)C(OC4CC(C)(OC)C(O)C(C)O4)C(C)C(=O)OC(CC)C(C)(O)C(O)C(C)N(C)CC(C)CC3(C)O)C2O)CC1 (stereo not shown) [A1-mac] | at the limit of detection | remained low
